Key:
[1] = test system: estrogen receptor of alpha-subtype; test: gene expression of estrogen receptor alpha-subtype in the prostate of male castrated rat; format: in vivo
[2] = test system: Nerve Growth Factor (NGF); test: gene expression of Nerve Growth Factor (bladder); format: in vivo, rat
Description: Bladder tonus is largely influenced by nerve cells located in the bladder wall and other vegetative nerve cells. The “Nerve Growth Factor” (NGF) is an indicator for the local activity of the nerve cells.

estrogen receptor-alpha = test: gene expression of estrogen receptor-alpha in the bladder of castrated rats; format: in vivo, rat
estrogen receptor-beta = test: gene expression of estrogen receptor-beta in the prostate of male castrated rat; format: in vivo
prostate = prostate regression / testosterone-induced prostate growth in castrated rats; format: in vivo, rat
Description: (§1) The prostate regression induced by castration could be antagonized by testosterone in experiments with rats.

IGF1 = IGF1 gene expression in the prostate of castrated male rats; format: in vivo, rat
Description: as §1

SMILES | gene expression of the estrogen receptor of alpha-subtype [1] | gene expression of Nerve Growth Factor (NGF) [2] | gene expression of the estrogen receptor-alpha (estrogen receptor-alpha) | gene expression of the estrogen receptor-beta (estrogen receptor-beta) | prostate regression induced by castration (prostate) | gene expression of the growth factor IGF1 (IGF1)
C[C@]12CC[C@@H]3c4ccc(O)cc4CC[C@H]3[C@@H]1CC[C@@H]2O [estradiol, 17β-estradiol] | significantly inhibit | observed under neither estradiol nor testosterone | regulate down | without having an effect |  | 
C[C@]12CC[C@H]3[C@@H](CCC4=CC(=O)CC[C@@]43C)[C@@H]1CC[C@@H]2O [testosterone] |  | observed under neither estradiol nor testosterone |  |  | antagonized | regulated up
